O=C(O)c1ccc(Br)cn1
solubility (mole fraction) (in 1,4-dioxane, 288.15 K): 0.0326
solubility (mole fraction) (in 1,4-dioxane, 293.15 K): 0.0378
solubility (mole fraction) (in 1,4-dioxane, 298.15 K): 0.0435
solubility (mole fraction) (in 1,4-dioxane, 303.15 K): 0.0502
solubility (mole fraction) (in 1,4-dioxane, 308.15 K): 0.0574
solubility (mole fraction) (in 1,4-dioxane, 313.15 K): 0.0656
solubility (mole fraction) (in 1,4-dioxane, 318.15 K): 0.0744
solubility (mole fraction) (in 1,4-dioxane, 323.15 K): 0.0831
solubility (mole fraction) (in THF, 278.15 K): 0.0326
solubility (mole fraction) (in THF, 283.15 K): 0.0374
solubility (mole fraction) (in THF, 288.15 K): 0.0426
solubility (mole fraction) (in THF, 293.15 K): 0.0478
solubility (mole fraction) (in THF, 298.15 K): 0.0543
solubility (mole fraction) (in THF, 303.15 K): 0.0611
solubility (mole fraction) (in THF, 308.15 K): 0.0663
solubility (mole fraction) (in THF, 313.15 K): 0.0742
solubility (mole fraction) (in THF, 318.15 K): 0.0803
solubility (mole fraction) (in THF, 323.15 K): 0.0886
solubility (mole fraction) (in acetonitrile, 278.15 K): 0.00178
solubility (mole fraction) (in acetonitrile, 283.15 K): 0.00219
solubility (mole fraction) (in acetonitrile, 288.15 K): 0.00266
solubility (mole fraction) (in acetonitrile, 293.15 K): 0.0032
solubility (mole fraction) (in acetonitrile, 298.15 K): 0.00381
solubility (mole fraction) (in acetonitrile, 303.15 K): 0.00449
solubility (mole fraction) (in acetonitrile, 308.15 K): 0.00524
solubility (mole fraction) (in acetonitrile, 313.15 K): 0.00607
solubility (mole fraction) (in acetonitrile, 318.15 K): 0.00698
solubility (mole fraction) (in acetonitrile, 323.15 K): 0.00797
solubility (mole fraction) (in ethanol, 278.15 K): 0.00865
solubility (mole fraction) (in ethanol, 283.15 K): 0.0103
solubility (mole fraction) (in ethanol, 288.15 K): 0.0122
solubility (mole fraction) (in ethanol, 293.15 K): 0.0144
solubility (mole fraction) (in ethanol, 298.15 K): 0.0175
solubility (mole fraction) (in ethanol, 303.15 K): 0.0209
solubility (mole fraction) (in ethanol, 308.15 K): 0.0241
solubility (mole fraction) (in ethanol, 313.15 K): 0.028
solubility (mole fraction) (in ethanol, 318.15 K): 0.0323
solubility (mole fraction) (in ethanol, 323.15 K): 0.0379
solubility (mole fraction) (in ethyl acetate, 278.15 K): 0.00491
solubility (mole fraction) (in ethyl acetate, 283.15 K): 0.00583
solubility (mole fraction) (in ethyl acetate, 288.15 K): 0.00674
solubility (mole fraction) (in ethyl acetate, 293.15 K): 0.00802
solubility (mole fraction) (in ethyl acetate, 298.15 K): 0.00937
solubility (mole fraction) (in ethyl acetate, 303.15 K): 0.011
solubility (mole fraction) (in ethyl acetate, 308.15 K): 0.0126
solubility (mole fraction) (in ethyl acetate, 313.15 K): 0.0144
solubility (mole fraction) (in ethyl acetate, 318.15 K): 0.0165
solubility (mole fraction) (in ethyl acetate, 323.15 K): 0.0186
solubility (mole fraction) (in isopropanol, 278.15 K): 0.0089
solubility (mole fraction) (in isopropanol, 283.15 K): 0.0107
solubility (mole fraction) (in isopropanol, 288.15 K): 0.0128
solubility (mole fraction) (in isopropanol, 293.15 K): 0.0152
solubility (mole fraction) (in isopropanol, 298.15 K): 0.018
solubility (mole fraction) (in isopropanol, 303.15 K): 0.0213
solubility (mole fraction) (in isopropanol, 308.15 K): 0.025
solubility (mole fraction) (in isopropanol, 313.15 K): 0.0292
solubility (mole fraction) (in isopropanol, 318.15 K): 0.034
solubility (mole fraction) (in isopropanol, 323.15 K): 0.0394
solubility (mole fraction) (in methanol, 278.15 K): 0.00787
solubility (mole fraction) (in methanol, 283.15 K): 0.00924
solubility (mole fraction) (in methanol, 288.15 K): 0.0107
solubility (mole fraction) (in methanol, 293.15 K): 0.0124
solubility (mole fraction) (in methanol, 298.15 K): 0.0145
solubility (mole fraction) (in methanol, 303.15 K): 0.017
solubility (mole fraction) (in methanol, 308.15 K): 0.0196
solubility (mole fraction) (in methanol, 313.15 K): 0.0229
solubility (mole fraction) (in methanol, 318.15 K): 0.0271
solubility (mole fraction) (in methanol, 323.15 K): 0.0315
solubility (mole fraction) (in methyl acetate, 278.15 K): 0.00916
solubility (mole fraction) (in methyl acetate, 283.15 K): 0.0104
solubility (mole fraction) (in methyl acetate, 288.15 K): 0.0117
solubility (mole fraction) (in methyl acetate, 293.15 K): 0.0131
solubility (mole fraction) (in methyl acetate, 298.15 K): 0.0147
solubility (mole fraction) (in methyl acetate, 303.15 K): 0.0164
solubility (mole fraction) (in methyl acetate, 308.15 K): 0.0182
solubility (mole fraction) (in methyl acetate, 313.15 K): 0.0201
solubility (mole fraction) (in methyl acetate, 318.15 K): 0.0221
solubility (mole fraction) (in methyl acetate, 323.15 K): 0.0244
solubility (mole fraction) (in n-butanol, 278.15 K): 0.0119
solubility (mole fraction) (in n-butanol, 283.15 K): 0.014
solubility (mole fraction) (in n-butanol, 288.15 K): 0.0163
solubility (mole fraction) (in n-butanol, 293.15 K): 0.0189
solubility (mole fraction) (in n-butanol, 298.15 K): 0.0218
solubility (mole fraction) (in n-butanol, 303.15 K): 0.0249
solubility (mole fraction) (in n-butanol, 308.15 K): 0.0283
solubility (mole fraction) (in n-butanol, 313.15 K): 0.0319
solubility (mole fraction) (in n-butanol, 318.15 K): 0.0358
solubility (mole fraction) (in n-butanol, 323.15 K): 0.0399
solubility (mole fraction) (in n-propanol, 278.15 K): 0.0102
solubility (mole fraction) (in n-propanol, 283.15 K): 0.0126
solubility (mole fraction) (in n-propanol, 288.15 K): 0.0152
solubility (mole fraction) (in n-propanol, 293.15 K): 0.0182
solubility (mole fraction) (in n-propanol, 298.15 K): 0.0216
solubility (mole fraction) (in n-propanol, 303.15 K): 0.0254
solubility (mole fraction) (in n-propanol, 308.15 K): 0.0296
solubility (mole fraction) (in n-propanol, 313.15 K): 0.0342
solubility (mole fraction) (in n-propanol, 318.15 K): 0.0391
solubility (mole fraction) (in n-propanol, 323.15 K): 0.0445
